For orientation: IC50 means the concentration that gives 50% inhibition.

Where two headings read alike, the source gives them in different places. Some results are limits rather than exact numbers.

This is an account of results in patent EP2366394A1, “Characterization and validation of inhibitors and ligands of dipeptidyl aminopeptidase IV (DP IV)” (IMTM GmbH, priority 2010, dated 2011).

Experiment [1] relates to T lymphocytes. The experiment can be described thus: Inhibition of proliferation (DNA synthesis, tritium thymidine incorporation) of PHA-stimulated T lymphocytes. Type of experiment: cell-based. To be noted: Homo sapiens, T-lymphocyte, read-out: IC50(Tc) Measured DNA-Supp. As to the method:
Peripheral blood mononuclear cells (PBMC) from healthy human volunteers were freshly isolated by density gradient centrifugation. T lymphocytes (T cells, Tc) were isolated from PBMC fractions via nylon wool adherence. Cells were cultured in standard cell culture media and stimulated by addition of 1 µg/ml Phytohemagglutinine for 48 hours in 96 well flat-bottom microtitre plates. […] DNA synthesis of proliferating T cells was determined by incorporation of radio labelled tritium thymidine and subsequent radio detection. […] The IC50 value of proliferation suppression was assessed by graphical evaluation.
On the technique in general: Dividing cells build labelled thymidine or BrdU into new DNA.

For experiment [2], the target named is DP8/9. Briefly: Inhibition of the enzymatic activity of DPIV related enzymes DP8/9. Type of experiment: biochemical. Particulars: > 25: No inhibition. An excerpt:
Measurement of the enzymatic activity of DPIV and related enzymes

Experiment [3] concerns the target purified, recombinant human DPIV (Homo sapiens, UniProt P27487). The experiment can be described thus: Inhibition of the enzymatic activity of DPIV, fluorogenic substrate (Ala-Pro)2-R110. The class given is biochemical. Particulars: substrate 0.5 µM, pH 7.5; highest test concentration 25 µM; > 25: No inhibition. As to the method: The assay was performed in 0.05 M TRIS/HCl buffer, pH 7.5, supplemented with 0.05 % Triton® (v/v), 0.05 % BSA (w/v), 2 mM MgCl2.
The enzymatic activity of DPIV was assessed by the hydrolysis of the fluorogenic substrate Bis-(L-Alanyl-Prolyl)-Rhodamin-110 (Bis-Trifluoroacetate; abbreviation: (Ala-Pro)2-R110). The final substrate concentration was 0.5 µM.
The assay was performed in white microtitre plates for fluorescence measurements. The test items, substrate and enzyme, were diluted in assay buffer. […] For the calculation of IC50 values, at least 16 log2 dilutions of each test item were analyzed. As controls, the DPIV activity in the absence of test items as well as the spontaneous hydrolysis of the substrate was determined.

[4] abbreviates: suppression of DNA synthesis of T cells, 1 µg/ml Phytohemagglutinine, 48 hours, graphical evaluation.

Sequence of purified, recombinant human DPIV (P27487 whole entry): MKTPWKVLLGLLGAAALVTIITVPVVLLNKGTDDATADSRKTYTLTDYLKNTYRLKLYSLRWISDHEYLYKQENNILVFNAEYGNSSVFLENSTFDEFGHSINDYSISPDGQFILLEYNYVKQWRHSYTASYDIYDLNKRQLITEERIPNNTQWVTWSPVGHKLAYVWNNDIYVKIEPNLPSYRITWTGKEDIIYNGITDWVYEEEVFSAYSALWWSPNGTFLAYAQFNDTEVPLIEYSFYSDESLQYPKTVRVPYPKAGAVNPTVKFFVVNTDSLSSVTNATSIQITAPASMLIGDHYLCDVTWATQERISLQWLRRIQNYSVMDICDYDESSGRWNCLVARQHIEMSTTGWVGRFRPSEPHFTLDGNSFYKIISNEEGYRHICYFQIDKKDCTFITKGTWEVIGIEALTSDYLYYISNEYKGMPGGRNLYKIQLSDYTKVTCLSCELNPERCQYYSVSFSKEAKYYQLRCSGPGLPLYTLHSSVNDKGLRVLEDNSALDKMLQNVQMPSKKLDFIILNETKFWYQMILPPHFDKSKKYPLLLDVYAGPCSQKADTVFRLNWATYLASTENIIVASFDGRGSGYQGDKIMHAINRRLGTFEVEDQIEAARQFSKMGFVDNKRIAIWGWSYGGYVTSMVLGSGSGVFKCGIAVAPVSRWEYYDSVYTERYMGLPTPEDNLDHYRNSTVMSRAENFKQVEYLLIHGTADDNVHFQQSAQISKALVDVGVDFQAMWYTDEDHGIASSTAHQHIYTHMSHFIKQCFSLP

For `N[C@@H](CC(=O)N1CCn2c(nnc2C(F)(F)F)C1)Cc1cc(F)ccc1F` [No. 1, (1R)-1-(2,5-Difluorobenzyl)-3-oxo-3-[3-(trifluoromethyl)-5,6-dihydro[1,2,4]triazolo[4,3-a]pyrazine-7(8H)-yl]propylamine], the IC50 in experiment [1] (48 h) was determined as 200 µM.
On to `CC(C)C(Oc1ccc(CNC(=O)C2CCCN2C(=O)CC(N)Cc2cc(F)ccc2F)cc1)C(=O)O` (stereo not shown) [No. 2, 2-[({[1-(3-Amino, 2-(2, 5)-difluorophenylbutanoyl)pyrrolidin-2-yl]carbonyl}amino)-p-phenoxy]-3-methyl butanoic acid], for which the IC50 in experiment [1] (setting [4]) is 81 µM; in experiment [2], > 25 µM; in experiment [3], 0.48 µM.
As to `CC[C@H](C)[C@H](N)C(=O)N1CCSC1` [No. 4, (1S,2S)-2-Methyl-1-(1,3-thiazolidine-3-ylcarbonyl) butyl amine], the 50% inhibitory concentration (IC50) in experiment [1] (48 h) came to 113 µM; in experiment [2], 1.73 µM.
Regarding `CC(C)(CNC(=O)CC(Cc1cc(F)ccc1F)NC(=O)OC(C)(C)C)CNC(=O)C(O)C(Cc1ccccc1)NC(=O)OC(C)(C)C` (stereo not shown) [No. 6, 3-N-tert.-Butylcarbamato-5-phenyl-N-{3-[(3-amino-2-hydroxypropanoyl)-amino]-2,2-dimethylpropyl}-5-(2,5-difluorophenyl) pentane 3-amine], the IC50 is 8 µM in experiment [1] (48 h), > 25 µM in experiment [2] and > 25 µM in experiment [3].
Take `CCCCCC(=O)NC(CC(=O)NCC(C)(C)CNC(=O)C(O)C(Cc1ccccc1)NC(=O)CCCCC)Cc1cc(F)ccc1F` (stereo not shown) [No. 7, 3-Amino-5-phenyl-N-{3-[(3-amino-1-oxohexyl-2-hydroxypropanoyl)amino-1-oxohexyl]-2,2-dimethylpropyl}-5-(2,5-difluorophenyl)pentane 3-N-tert.butyl carbamate]: the half-inhibitory concentration (IC50) in experiment [1] (48 h) was 10 µM; in experiment [2], > 25 µM; in experiment [3], > 25 µM.
Regarding `NC(CCCCNC(=O)c1ccc(S)nc1)C(=O)N1CCSC1` (stereo not shown) [No. 8, N-[5-Amino-6-oxo-6-(1,3-thiazolidine-3-yl)hexyl]-6-mercapto nicotinamide], the results for the IC50 in experiment [1] (48 h), in experiment [2] and in experiment [3] were 90 µM, 0.001 µM and 0.09 µM, respectively.
In the case of `NC(CC(=O)N1CCn2c(nnc2C(F)(F)F)C1)Cc1cc(F)c(F)cc1F` (stereo not shown) [No. 10, 3-Oxo-1-(2,4,5-trifluorobenzyl)-3-[3-(trifluoromethyl)-5,6-dihydro-[1,2,4]triazolo[4,3-a]pyrazine-7(8H)-yl]propyl amine], the concentration for half-maximal inhibition (IC50) was 148 µM in experiment [1] (setting [4]) and 15.3 µM in experiment [2].
Consider `NC(CC(=O)N1CCN(C(c2ccc(F)cc2)c2ccc(F)cc2)CC1)C(=O)N1Cc2ccccc2C1` (stereo not shown) [No. 13, 2-Amino-1-(1,3-dihydro-2H-isoindol-2-yl)-4-(4-bis(4-fluorophenyl)-methylpiperazine-1-yl) butane-1,4-dione], for which, in experiment [1] (48 h), the IC50 came to 6 µM.
For `NC(CNC(=O)c1cccc(NC(=O)C(O)C(N)Cc2ccc(-c3cccnc3)cc2)c1)Cc1cc(F)ccc1F` (stereo not shown) [No. 15, 3-[(3-Amino-2-4-(4-(3-pyridinyl)-phenyl) hydroxybu-tanoyl)-amino]-N-(2-amino-5-(2,4-difluorophenyl)pentyl) ben-zamide], the 50% inhibitory concentration (IC50) in experiment [1] (setting [4]) came to 24 µM; in experiment [2], 8.5 µM.
On to `Cc1[nH]c2ccccc2c1C(c1cc(Cl)ccc1O)N1CCOCC1` (stereo not shown) [No. 16, 4-Chloro-2-[(2-methyl-1H-indol-3-yl)(morpholin-4-yl)methyl]-benzenolate], for which the IC50 is 3 µM in experiment [1] (setting [4]) and > 25 µM in experiment [3].
